Results published in US20250353873A1, “COMPOUNDS AND METHODS FOR MODULATING APOE EXPRESSION” (Ionis Pharmaceuticals, Inc., priority 2024, published 2025).
Values joined by “and” are separate entries in the source; they are usually repeats but may differ in a detail not shown here. Equal entries are not always repeated. Strand notation (5' to 3'): a small letter for the sugar, then the base; units joined by * are phosphorothioate-linked, units joined directly phosphodiester-linked; [ ] holds rarer units or linkages, { } end groups; capitals alone tell only the bases. [PN] = cyclic guanidine phosphoramidate internucleoside linkage; [ms] = mesyl phosphoramidate linkage; e = 2'-O-(2-methoxyethyl) (MOE); k = constrained ethyl (cEt); [5mC] = 5-methylcytosine; d = 2'-deoxy (DNA)

Assays:
[1] = tested on: human APOE RNA; assay: Dose-dependent inhibition of human APOE RNA in HepG2 cells, electroporation, 50,000 cells per well, RT-PCR normalized to GAPDH (Example 4, Tables 8-10); type: cell-based; settings: HepG2, electroporation, 24-hour treatment
Method in brief: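 HepG2 cells, 50,000 per well, electroporated with modified oligonucleotide at various concentrations. APOE RNA quantified by RT-PCR with human primer probe set RTS3073, normalized to GAPDH. Values are percent APOE RNA relative to untreated control cells.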

[2] = tested on: human APOE RNA; assay: Duration of action study in APOE C57BL/6NTac-Apoeem7250 knock-in mice (Example 16); type: in vivo; settings: 300 μg ICV
Procedure: Modified oligonucleotides described above were tested in the APOE C57BL/6NTac-Apoeem7250 knock-in mouse model described above.
APOE C57BL/6NTac-Apoeem7250 knock-in mice were divided into groups of 2-4 mice each. Each mouse received a single intracerebroventricular (ICV) bolus of 300 μg of modified oligonucleotide. A group of 2-4 mice received a single ICV bolus with PBS as a negative control.
Mice were sacrificed at various timepoints as indicated in the table below and RNA was extracted from cortical brain tissue and spinal cord for quantitative real-time RT-PCR analysis of RNA expression of APOE using primer probe set RTS3073 (described herein above). APOE RNA levels were normalized to mouse Ppia. Mouse Ppia was amplified using primer probe set m_cyclo24 (described herein above). Results are presented as percent human APOE RNA relative to the amount of human APOE RNA in PBS treated animals, (% control). Each experiment is identified in separate tables below.

[3] = tested on: human APOE RNA; assay: Activity in APOE C57BL/6NTac-Apoeem7250 knock-in mice, single ICV bolus, 4 weeks (Example 10); type: in vivo; settings: single ICV bolus 300 μg, 4 weeks post treatment, normalized to mouse Ppia
Method in brief: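 Knock-in mice (2–4 per group) received one 300 μg ICV bolus of oligonucleotide or PBS. After four weeks, human APOE RNA in cortex and spinal cord measured by RT-qPCR (primer probe set RTS3073), normalized to mouse Ppia, expressed as % of PBS controls.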

[4] = tested on: human APOE RNA; assay: Activity in APOE C57BL/6NTac-Apoeem7250 knock-in mice, single ICV bolus, 16 weeks (Example 12); type: in vivo; settings: single ICV bolus 300 μg, 16 weeks post treatment, normalized to mouse Ppia
Method in brief: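 Knock-in mice (3-4 per group) received one ICV bolus of 300 μg oligonucleotide, PBS as control. After 16 weeks, human APOE RNA in cortex and spinal cord measured by RT-qPCR, normalized to mouse Ppia, and reported as % of PBS control.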

[5] = tested on: human APOE RNA; assay: Activity in APOE C57BL/6NTac-Apoeem7250 knock-in mice, single ICV bolus, 8 weeks (Example 11); type: in vivo; settings: single ICV bolus 300 μg, 8 weeks post treatment, normalized to mouse Ppia
Method in brief: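 Human APOE knock-in C57BL/6NTac mice given one ICV bolus of 300 μg oligonucleotide; PBS-dosed group as control. At 8 weeks, cortex and spinal cord RNA measured by qRT-PCR (human probe RTS3073), normalized to mouse Ppia, expressed as % of PBS control.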

Substance | APOE RNA (% UTC) ([1]; 5 nM) | APOE RNA (% UTC) ([1]; 13 nM) | APOE RNA (% UTC) ([1]; 33 nM) | APOE RNA (% UTC) ([1]; 82 nM) | APOE RNA (% UTC) ([1]; 205 nM) | APOE RNA (% UTC) ([1]; 512 nM) | APOE RNA (% UTC) ([1]; 1,280 nM) | APOE RNA (% UTC) ([1]; 3,200 nM) | APOE RNA (% UTC) ([1]; 8,000 nM) | APOE RNA (% UTC) ([1]; 20,000 nM) | IC50 [1] | APOE RNA (% control) Cortex ([2]; 112 days post-dose) | APOE RNA (% control) Cortex ([2]; 140 days post-dose) | APOE RNA (% control) Spinal Cord ([2]; 112 days post-dose) | APOE RNA (% control) Spinal Cord ([2]; 140 days post-dose) | APOE RNA (% control) Cortex [3] | APOE RNA (% control) Spinal Cord [3] | APOE RNA (% control) Cortex ([2]; 14 days post-dose) | APOE RNA (% control) Spinal Cord ([2]; 14 days post-dose) | further results
1746801 (k[5mC]*dT[ms]dT[ms]kG*kG*dT[ms]dG[ms]dA[ms]dA[ms]dT*d[5mC]*dT*dT*dT*dA[ms]dT*kT*dA[ms]kA*kA; antisense) [Compound 1746801] | 93 % UTC | 98 % UTC | 114 % UTC | 99 % UTC | 76 % UTC | 56 % UTC | 33 % UTC | 11 % UTC | 14 % UTC | 2 % UTC | 670 nM | 47 % control | 67 % control | 70 % control | 138 % control | 58 % control | 44 % control | – | – | –
1746810 (k[5mC]*dT[ms]kT*dG[ms]dG[ms]kT*dG[ms]dA[ms]dA[ms]dT*d[5mC]*dT*dT*dT*dA[ms]dT*dT[ms]kA*kA*kA; antisense) [Compound 1746810] | 109 % UTC | 106 % UTC | 95 % UTC | 77 % UTC | 68 % UTC | 46 % UTC | 36 % UTC | 13 % UTC | 8 % UTC | 5 % UTC | 490 nM | 63 % control | 82 % control | 80 % control | 106 % control | 56 % control | 80 % control | – | – | –
1753989 (k[5mC]*dT[ms]kT*dG[ms]kG*dT*dG[ms]dA[ms]dA[ms]dT*d[5mC]*dT*dT*dT*dA[ms]kT*dT[ms]kA*dA[ms]kA; antisense) [Compound 1753989] | 113 % UTC | 108 % UTC | 102 % UTC | 79 % UTC | 94 % UTC | 76 % UTC | 49 % UTC | 33 % UTC | 25 % UTC | 16 % UTC | 1670 nM | 58 % control | 72 % control | 117 % control | 79 % control | 54 % control | 49 % control | – | – | –
1746789 (k[5mC]*dT[ms]kT*dG[ms]kG*dT[ms]dG[ms]dA[ms]dA[ms]dT*d[5mC]*dT*dT*dT*dA[ms]dT*kT*kA*dA[ms]kA; antisense) [Compound 1746789] | 98 % UTC | 106 % UTC | 84 % UTC | 102 % UTC | 76 % UTC | 64 % UTC | 37 % UTC | 19 % UTC | 10 % UTC | 4 % UTC | 830 nM | 63 % control | 75 % control | 83 % control | 80 % control | 60 % control | 41 % control | – | – | –
1746811 (k[5mC]*dT[ms]dT[ms]kG*kG*dT[ms]dG[ms]dA[ms]dA[ms]dT*d[5mC]*dT*dT*dT*dA[ms]dT*dT[ms]kA*kA*kA; antisense) [Compound 1746811] | 99 % UTC | 86 % UTC | 83 % UTC | 95 % UTC | 70 % UTC | 54 % UTC | 47 % UTC | 23 % UTC | 12 % UTC | 5 % UTC | 740 nM | 71 % control | 89 % control | 95 % control | 103 % control | 61 % control | 62 % control | – | – | –
1652901: 6-10-4 MOE gapmer TTGGTGAATCTTTATTAAAC, linkages sooooossssssssssoss (antisense eT*eTeGeGeTeGdA*dA*dT*d[5mC]*dT*dT*dT*dA*dT*dT*eAeA*eA*e[5mC]) [compound 1652901] | – | – | – | – | – | – | – | – | – | – | – | 90 % control | – | 51 % control | – | – | – | 43 % control | 33 % control | APOE RNA (% control) Cortex ([4]; cortex): 104 % control; APOE RNA (% control) Spinal Cord ([4]; spinal cord): 61 % control; APOE RNA (% control) Cortex ([5]; cortex): 47 % control and 49 % control; APOE RNA (% control) Spinal Cord ([5]; spinal cord): 18 % control and 27 % control
1746803 (k[5mC]*dT[ms]dT[ms]kG*dG[ms]kT*dG[ms]dA[ms]dA[ms]dT*d[5mC]*dT*dT*dT*dA[ms]dT*kT*dA[ms]kA*kA; antisense) [Compound 1746803] | 93 % UTC | 83 % UTC | 84 % UTC | 114 % UTC | 68 % UTC | 61 % UTC | 31 % UTC | 29 % UTC | 22 % UTC | 39 % UTC | 1100 nM | 54 % control | 73 % control | 74 % control | 82 % control | 51 % control | 39 % control | – | – | –
1721308: 6-10-4 MOE gapmer CTTGGTGAATCTTTATTAAA, linkages s[pn][pn][pn]oossssssszzsoss (e[5mC]*eT[PN]eT[PN]eG[PN]eGeTdG*dA*dA*dT*d[5mC]*dT*dT*dT[ms]dA[ms]dT*eTeA*eA*eA) [compound 1721308] | – | – | – | – | – | – | – | – | – | – | – | 85 % control | – | 42 % control | – | – | – | 48 % control | 45 % control | –
1721304: 6-10-4 MOE gapmer TTGGTGAATCTTTATTAAAC, linkages s[pn][pn][pn]oosssssszzssoss (eT*eT[PN]eG[PN]eG[PN]eTeGdA*dA*dT*d[5mC]*dT*dT*dT[ms]dA[ms]dT*dT*eAeA*eA*e[5mC]) [compound 1721304] | – | – | – | – | – | – | – | – | – | – | – | 67 % control | – | 42 % control | – | – | – | 46 % control | 45 % control | –
